# Assay results as given in ChEMBL document CHEMBL3885881, “DrugMatrix”.
# Species: Rattus norvegicus
# Assay: DrugMatrix - Regimen: Daily Repeat
# Assay type: toxicity, organism-based, Sprague-Dawley
# Set-up: regimen Daily Repeat, gender Male, age 6-8 weeks
# Conditions: in vivo, po, route oral GAVAGE, vehicle 100 % WATER; for ABSOLUTE BASOPHIL / ABSOLUTE EOSINOPHIL / ABSOLUTE LYMPHOCYTE / ABSOLUTE MONOCYTE / ABSOLUTE SEGMENTED NEUTROPHIL / BASOPHIL / EOSINOPHIL / ERYTHROCYTE COUNT / HEMATOCRIT / HEMOGLOBIN / LEUKOCYTE COUNT / LYMPHOCYTE / MEAN CORPUSCULAR HEMOGLOBIN / MEAN CORPUSCULAR HEMOGLOBIN CONCENTRATION / MEAN CORPUSCULAR VOLUME / MONOCYTE / NEUTROPHIL / NUCLEATED RED BLOOD CELLS / PLATELET COUNT: tissue Blood; for ALANINE AMINOTRANSFERASE / ALBUMIN / ALKALINE PHOSPHATASE / ASPARTATE AMINOTRANSFERASE / BLOOD UREA NITROGEN / CARBON DIOXIDE / CHLORIDE / CHOLESTEROL / CREATINE PHOSPHOKINASE / CREATININE / GLUCOSE / LACTATE DEHYDROGENASE / LIPASE / PHOSPHORUS / POTASSIUM / SODIUM / TOTAL BILIRUBIN / TOTAL PROTEIN / URIC ACID: tissue Plasma
# [1] = 0 mg/kg, 72 h, dose level Control, time 3 day
# [2] = 0 mg/kg, 120 h, dose level Control, time 5 day
# [3] = 60 mg/kg, 72 h, dose level Low, time 3 day
structure (smiles),measurement,setting,value
CC(C)C[C@H](NC(=O)[C@@H](O)[C@H](N)Cc1ccccc1)C(=O)O [UBENIMEX],ABSOLUTE BASOPHIL,[1],0 CELLS/uL
same,ABSOLUTE EOSINOPHIL,[1],168.33 CELLS/uL
same,ABSOLUTE LYMPHOCYTE,[1],13654.17 CELLS/uL
same,ABSOLUTE MONOCYTE,[1],121 CELLS/uL
same,ABSOLUTE SEGMENTED NEUTROPHIL,[1],1223.17 CELLS/uL
same,BASOPHIL,[1],0%
same,EOSINOPHIL,[1],1.17%
same,ERYTHROCYTE COUNT,[1],5.7 x10E6/uL
same,HEMATOCRIT,[1],35.33%
same,HEMOGLOBIN,[1],13.97 G/DL
same,LEUKOCYTE COUNT,[1],15.17 x10E3/uL
same,LYMPHOCYTE,[1],89.83%
same,MEAN CORPUSCULAR HEMOGLOBIN,[1],24.53 pg
same,MEAN CORPUSCULAR HEMOGLOBIN CONCENTRATION,[1],39.53 G/DL
same,MEAN CORPUSCULAR VOLUME,[1],62.05 fL
same,MONOCYTE,[1],0.83%
same,NEUTROPHIL,[1],8.17%
same,NUCLEATED RED BLOOD CELLS,[1],0 /100WBC
same,PLATELET COUNT,[1],1312.17 x10E3/uL
same,ALANINE AMINOTRANSFERASE,[1],50.83 u/L
same,ALBUMIN,[1],4.18 G/DL
same,ALKALINE PHOSPHATASE,[1],334.17 u/L
same,ASPARTATE AMINOTRANSFERASE,[1],82.17 u/L
same,BLOOD UREA NITROGEN,[1],15.5 mg/dL
same,CARBON DIOXIDE,[1],31.33 mmol/L
same,CHLORIDE,[1],99.83 MEQ/L
same,CHOLESTEROL,[1],76 mg/dL
same,CREATINE PHOSPHOKINASE,[1],272.17 u/L
same,CREATININE,[1],0.17 mg/dL
same,GLUCOSE,[1],143 mg/dL
same,LACTATE DEHYDROGENASE,[1],157.5 u/L
same,LIPASE,[1],9.33 u/L
same,PHOSPHORUS,[1],12.18 mg/dL
same,POTASSIUM,[1],6.78 MEQ/L
same,SODIUM,[1],143.9 MEQ/L
same,TOTAL BILIRUBIN,[1],0.22 mg/dL
same,TOTAL PROTEIN,[1],5.85 G/DL
same,URIC ACID,[1],1.7 mg/dL
same,ABSOLUTE BASOPHIL,[2],0 CELLS/uL
same,ABSOLUTE EOSINOPHIL,[2],0 CELLS/uL
same,ABSOLUTE LYMPHOCYTE,[2],13539.33 CELLS/uL
same,ABSOLUTE MONOCYTE,[2],177.67 CELLS/uL
same,ABSOLUTE SEGMENTED NEUTROPHIL,[2],2116.33 CELLS/uL
same,BASOPHIL,[2],0%
same,EOSINOPHIL,[2],0%
same,ERYTHROCYTE COUNT,[2],5.78 x10E6/uL
same,HEMATOCRIT,[2],36.13%
same,HEMOGLOBIN,[2],14.1 G/DL
same,LEUKOCYTE COUNT,[2],15.83 x10E3/uL
same,LYMPHOCYTE,[2],85.83%
same,MEAN CORPUSCULAR HEMOGLOBIN,[2],24.42 pg
same,MEAN CORPUSCULAR HEMOGLOBIN CONCENTRATION,[2],39 G/DL
same,MEAN CORPUSCULAR VOLUME,[2],62.55 fL
same,MONOCYTE,[2],0.83%
same,NEUTROPHIL,[2],13.33%
same,NUCLEATED RED BLOOD CELLS,[2],0.17 /100WBC
same,PLATELET COUNT,[2],1281.17 x10E3/uL
same,ALANINE AMINOTRANSFERASE,[2],55.5 u/L
same,ALBUMIN,[2],4.22 G/DL
same,ALKALINE PHOSPHATASE,[2],345 u/L
same,ASPARTATE AMINOTRANSFERASE,[2],92.5 u/L
same,BLOOD UREA NITROGEN,[2],16.5 mg/dL
same,CARBON DIOXIDE,[2],26.5 mmol/L
same,CHLORIDE,[2],103.5 MEQ/L
same,CHOLESTEROL,[2],78.5 mg/dL
same,CREATINE PHOSPHOKINASE,[2],381.5 u/L
same,CREATININE,[2],0.21 mg/dL
same,GLUCOSE,[2],161.83 mg/dL
same,LACTATE DEHYDROGENASE,[2],487.5 u/L
same,LIPASE,[2],10.17 u/L
same,PHOSPHORUS,[2],11.83 mg/dL
same,POTASSIUM,[2],6.4 MEQ/L
same,SODIUM,[2],146.95 MEQ/L
same,TOTAL BILIRUBIN,[2],0.22 mg/dL
same,TOTAL PROTEIN,[2],6.22 G/DL
same,URIC ACID,[2],1.83 mg/dL
same,ABSOLUTE BASOPHIL,[3],0 CELLS/uL
same,ABSOLUTE EOSINOPHIL,[3],99.33 CELLS/uL
same,ABSOLUTE LYMPHOCYTE,[3],13954.33 CELLS/uL
same,ABSOLUTE MONOCYTE,[3],91 CELLS/uL
same,ABSOLUTE SEGMENTED NEUTROPHIL,[3],1655.33 CELLS/uL
same,BASOPHIL,[3],0%
same,EOSINOPHIL,[3],0.67%
same,ERYTHROCYTE COUNT,[3],5.56 x10E6/uL
same,HEMATOCRIT,[3],33.13%
same,HEMOGLOBIN,[3],12.97 G/DL
same,LEUKOCYTE COUNT,[3],15.8 x10E3/uL
same,LYMPHOCYTE,[3],88.33%
same,MEAN CORPUSCULAR HEMOGLOBIN,[3],23.33 pg
same,MEAN CORPUSCULAR HEMOGLOBIN CONCENTRATION,[3],39.17 G/DL
same,MEAN CORPUSCULAR VOLUME,[3],59.53 fL
same,MONOCYTE,[3],0.67%
same,NEUTROPHIL,[3],10.33%
same,NUCLEATED RED BLOOD CELLS,[3],0 /100WBC
same,PLATELET COUNT,[3],1252.67 x10E3/uL
same,ALANINE AMINOTRANSFERASE,[3],58 u/L
same,ALBUMIN,[3],4.13 G/DL
same,ALKALINE PHOSPHATASE,[3],310.67 u/L
same,ASPARTATE AMINOTRANSFERASE,[3],96.67 u/L
same,BLOOD UREA NITROGEN,[3],15.67 mg/dL
same,CARBON DIOXIDE,[3],29.33 mmol/L
same,CHLORIDE,[3],100 MEQ/L
same,CHOLESTEROL,[3],80 mg/dL
same,CREATINE PHOSPHOKINASE,[3],475.33 u/L
same,CREATININE,[3],0.2 mg/dL
same,GLUCOSE,[3],142 mg/dL
same,LACTATE DEHYDROGENASE,[3],612.67 u/L
same,LIPASE,[3],9.67 u/L
same,PHOSPHORUS,[3],11.07 mg/dL
same,POTASSIUM,[3],6.61 MEQ/L
same,SODIUM,[3],143.5 MEQ/L
same,TOTAL BILIRUBIN,[3],0.17 mg/dL
same,TOTAL PROTEIN,[3],5.8 G/DL
same,URIC ACID,[3],1.47 mg/dL
